Experimental data from PMC12333940, “A prometabolite strategy inhibits cardiometabolic disease in an ApoE^–/– murine model of atherosclerosis” (JCI Insight, 2025).
“And” between values parts separate entries of the source, which are not always exact repeats. Identical values can stand only once.

Tests used:
[1] = tested on: RAW 264.7 macrophages; assay: LEGENDPlex cytokines in supernatant of LPS-stimulated RAW 264.7; format: cell-based; design: TNFa (Legendplex) / MCP-1 (Legendplex) / IL-10 (Legendplex) / IL-6 (Legendplex): unit not given here
Protocol: RAW 264.7 (ATCC, TIB-71) macrophages were cultured at 37°C and 5% CO2 in DMEM (Gibco) supplemented with 1 mM HEPES, 1 mM sodium pyruvate, 10% FBS, and penicillin/streptomycin. Cells were plated in round-bottom 96-well plates at 100,000 cells per well and incubated with different concentrations of either NaBut or SerBut (0.15–12 mM) for 24 hours. Cells were then rinsed with PBS and then stimulated with 200 ng/mL LPS in media for 6 hours. The cell culture supernatant was collected and analyzed by LEGENDPlex to analyze the concentrations of cytokines (BioLegend). Cell phenotype was analyzed using flow cytometry (Cytek Aurora).

[2] = Biodistribution of free butyrate in intestinal tissue and contents, C57BL/6 mice; format: in vivo
From the text: NaBut is limited in its translation by butyrate’s rapid consumption by colonocytes as a primary energy source in the distal gut. We propose that the enhanced biodistribution of free, active butyrate (following cleavage from serine) in SerBut-treated mice is due to small intestinal escape from the gut via amino acid transporters. To probe this hypothesis, we repeated the experiment and analyzed the biodistribution of free active butyrate in distinct sections of the intestinal tissue and the intestinal contents (Figure 2, K and L, and Supplemental Figure 2). Because neither ApoE^–/– nor HFD feeding would be expected to change amino acid receptor expression or function in the intestine, this was performed in C57BL/6 mice on a normal diet. […] We saw no increase in butyrate in the colon tissue (Figure 2P).
Samples were prepared and derivatized as described previously ([28]). […] The internal standard, 4-methylvaleric acid, was added.
Injection volume: 5.0 μL. Flow rate: 0.5 mL/min.

[3] = tested on: ApoE^–/– mice on an HFD; assay: Immunofluorescent staining of the aortic root (CD68, iNOS, DAPI); format: in vivo, mouse; design: Immunoflourescence Quantification #Cells/Area / Immunoflourescence Quantification #iNOS+/Area: unit not given beside the values
From the text: SerBut water was pH adjusted using 10 M NaOH to a final pH of 7.4. […] After 6 weeks, mice were euthanized. […] The liver was harvested and part was homogenized in tissue protein extraction reagent buffer (Invitrogen, 78510) supplemented with protease inhibitor mini tablets (Thermo Fisher Scientific, PIA32955) for Western blotting and qPCR. […] Aortic root sections were brought to room temperature and rehydrated with PBS and permeabilized with 10% dimethyl sulfoxide (DMSO). […] Sections were washed again in PBS with 0.1% Tween 20 and then PBS and mounted with ProLong Gold Antifade Mountant with DAPI (Invitrogen). Slides were imaged with a DMI8 inverted fluorescence microscope (Leica Microsystems) and analyzed with QuPath (v0.5.0).

[4] = tested on: ApoE^–/– mice on an HFD; assay: Blood chemical analysis of plasma; format: in vivo, mouse; design: Lipase / ALT / Altherogenic Lipids (Chol-HDL) / HDL-C / LDL-C: unit not given here
Protocol: SerBut water was pH adjusted using 10 M NaOH to a final pH of 7.4. […] After 6 weeks, mice were euthanized. […] The liver was harvested and part was homogenized in tissue protein extraction reagent buffer (Invitrogen, 78510) supplemented with protease inhibitor mini tablets (Thermo Fisher Scientific, PIA32955) for Western blotting and qPCR. […] Blood chemical analysis was performed on an Alfa […] Chemistry Analyzer. Reagent kits from Alfa Wasserman were used according to manufacturer's instructions to analyze plasma: lipase (catalog SA1045), HDL-C (catalog SA2038, LDL-C (catalog SA1040), AST (catalog SA1053), ALT (catalog SA1052). A LEGENDPlex was utilized to analyze the concentrations of inflammatory cytokines (BioLegend).

[5] = tested on: ApoE^–/– mice on an HFD; assay: Histological grading and scoring of livers; format: in vivo, mouse; design: key to Liver Grading and Staging: Lobular inflammation (CD3+): one focus in which more than 10 periductal CD3^+ lymphocytes are found in an ×200 field; 2 to 5 instances of more than 10 periductal CD3^+ immune cells in an ×200 field; 3: Any sample exceeding this threshold
Protocol: For 6 weeks, mice were freely administered water, water containing 150 mM SerBut, or water containing an equimolar amount of NaBut. SerBut water was pH adjusted using 10 M NaOH to a final pH of 7.4. […] In concert, mice were fed an HFD with 42% from fat and 0.2% total cholesterol (Envigo, TD-88137) ad libitum. After 6 weeks, mice were euthanized. The lMLNs, ILNs, spleen, heart, and aorta were harvested and processed for flow cytometry analysis ([67]). The liver was harvested and part was homogenized in tissue protein extraction reagent buffer (Invitrogen, 78510) supplemented with protease inhibitor mini tablets (Thermo Fisher Scientific, PIA32955) for Western blotting and qPCR. The remaining liver was fixed with 4% paraformaldehyde and embedded in paraffin for histological analysis.
Sections (8 μm thick) were stained. Digital image files were created with an Olympus VS200 Research Slide Scanner (Olympus/Evident) with a Hamamatsu ORca-Fusion camera (Hamamatsu Photonics) at ×40 magnification. Individual images were created with the OlyVIA Viewer software (Olympus/Evident). Scoring and grading was performed by a pathologist as previously described ([48]). Immunohistochemistry grading was informed by age-matched WT controls. In age-matched WT controls, CD3^+ immune cells were seen scattered without distinct aggregate formation nor associated tissue reaction. In an ×400 field, we observed up to 25 CD3^+ immune cells scattered in an even distribution, with rare events of up to 10 periductal CD3^+ immune cells but with no associated ductal or parenchymal reaction. […] Furthermore, a score of 2 corresponds to 2 to 5 instances of more than 10 periductal CD3^+ immune cells in an ×200 field. Any sample exceeding this threshold was scored a 3.

[6] = aortic root, individual samples
[7] = Blood Chemistry, 6wk, individual mice, experiments 1 and 2
[8] = liver, individual mice, 150 mM ad libitum for 6 weeks, HFD

With CCCC(=O)OC[C@H](N)C(=O)O [SerBut, O-butyryl-L-serine] the “TNFa (Legendplex)” value ([1]; 1.3 mM 24 h, then LPS 6 h) was 4133.05 and 4500 and 3675.16 and 3268.68 and 3195.27 and 3191.26, the “TNFa (Legendplex)” value ([1]; 4 mM 24 h, then LPS 6 h) was 3513.15 and 3456.91 and 3852.76 and 3385.25 and 3103.2 and 3863.3 and the “TNFa (Legendplex)” value ([1]; 12 mM 24 h, then 200 ng/mL LPS 6 h) was 1963.6 and 2002.31 and 2185.35 and 1388.16 and 2487.75 and 2408.88. For the same molecule, the “production of IL-6, MCP-1 and GM-CSF” value ([1]; 12 mM, as effectively as 1.3 mM NaBut) was “suppressed NF-κB–regulated production of proinflammatory cytokines”, the “IL-10” value ([1]; compared with LPS-stimulated controls) was “trending increase” and the “free butyrate, Lower SI Contents” value ([2]; C57BL/6, normal chow, 3 hr after single gavage) was 61.2227 µg/g and 52.7128 µg/g and 33.2508 µg/g and 35.0221 µg/g. The “butyrate in the colon tissue” value ([2]; C57BL/6, normal diet) was “no increase”, the “free butyrate in the intestinal contents” value ([2]; C57BL/6, normal diet) was “no significant changes” and the “free butyrate in upper and lower small intestine and ileum tissue” value ([2]; compared with both PBS- and NaBut-treated mice) was “significantly more free, active butyrate”. For the same molecule, the “total numbers of CD68^+ macrophages in plaque” value ([3]; 6 weeks, compared to NaBut-treated groups) was “reduced”, the “Immunoflourescence Quantification #CD68” value [3, 6] was 253 and 777 and 160 and 609 and 328 and 484 and 543 and 320 and 469 and 759 and 789 and 546 and 570 and 595 and 155 and 500 and the “Immunoflourescence Quantification #Cells” value [3, 6] was 361 and 838 and 219 and 933 and 390 and 980 and 918 and 425 and 532 and 1028 and 894 and 662 and 629 and 763 and 225 and 709. The “Immunoflourescence Quantification #Cells/Area” value [3, 6] was 0.003013 and 0.004253 and 0.004189 and 0.003573 and 0.00395 and 0.004233 and 0.003714 and 0.004358 and 0.004407 and 0.003725 and 0.004412 and 0.003975 and 0.003527 and 0.00449 and 0.003521 and 0.004264, the “Immunoflourescence Quantification #iNOS+” value [3, 6] was 313 and 90 and 377 and 151 and 158 and 199 and 404 and 180 and 226 and 262 and 184 and 96 and 292 and the “Immunoflourescence Quantification #iNOS+/Area” value [3, 6] was 0.001588 and 0.001722 and 0.001444 and 0.001529 and 0.00162 and 0.001649 and 0.001464 and 0.0008883 and 0.001357 and 0.001469 and 0.001083 and 0.001502 and 0.001756. The “Immunoflourescence Quantification CD68+/Area” value [3, 6] was 0.002112 and 0.003943 and 0.003061 and 0.002332 and 0.003322 and 0.00209 and 0.002197 and 0.003281 and 0.003885 and 0.00275 and 0.003894 and 0.003278 and 0.003196 and 0.003502 and 0.002425 and 0.003007, the “Immunoflourescence Quantification CD68+iNOS+” value [3, 6] was 308 and 87 and 302 and 146 and 132 and 181 and 347 and 153 and 200 and 252 and 157 and 71 and 253 and the “Immunoflourescence Quantification CD68+iNOS+/Area” value [3, 6] was 0.001563 and 0.001664 and 0.001157 and 0.001479 and 0.001354 and 0.001499 and 0.001257 and 0.0007551 and 0.001201 and 0.001413 and 0.000924 and 0.001111 and 0.001521. The “lipase in the plasma” value ([4]; 6 weeks) was “no effect”, the “total cholesterol or triglycerides in the plasma” value ([4]; 6 weeks) was “Neither SerBut nor NaBut influenced” and the “LDL-C as a fraction of total cholesterol” value ([4]; 6 weeks, 150 mM in drinking water, HFD) was “significantly reduced”. The “ratio of HDL to total cholesterol” value ([4]; 6 weeks, compared with NaBut treatment) was “significantly increased”, the “plasma ALT and AST” value ([4]; 6 weeks, compared with both water control and NaBut groups) was “significantly reduced” and the “Altherogenic Lipids (Chol-HDL)” value [4, 7] was 948 and 1048 and 1026 and 1018 and 1032 and 880 and 848 and 784 and 1074 and 722 and 776 and 780 and 800 and 768 and 1080 and 736 and 882. For the same molecule, the HDL-C [4, 7] was 38 and 52 and 46 and 44 and 48 and 54 and 56 and 42, the LDL-C ([4]; Blood Chemistry, individual mice, experiments 1 and 2) was 320 and 324 and 382 and 332 and 336 and 378 and 454 and 290 and 460 and 258 and 354 and 282 and 292 and 318 and 416 and 268 and 238 and the ALT ([4]; plasma at 6 weeks, 150 mM in drinking water ad libitum with HFD, individual mice) was 30.92 and 18.78 and 25.96 and 23.5 and 26.22 and 26.76 and 26.18 and 26.36 and 22.68. The “CD3^+ immune cell infiltration into the livers, lobular inflammation” value ([5]; 6 weeks) was “Neither SerBut nor NaBut significantly reduced”, the “hepatocellular nuclear hypertrophy” value ([5]; 6 weeks) was “suppressed” and the “liver steatosis (macrovesicular fat) score” value ([5]; 6 weeks) was “significantly suppressed”. The “overall summed histological liver score” value ([5]; 6 weeks) was “reduced liver pathology”, the “Liver Grading and Staging: Balooning Grade, Hypertrophy” value [5, 8] was 2 and 1 and 0 and the “Liver Grading and Staging: Lobular inflammation (CD3+)” value [5, 8] was 1 and 0 and 2. The “Liver Grading and Staging: Steatosis Grade, Macro fat” value [5, 8] was 0 and 2 and the “NAS score (steatosis, inflammation, Ballooning)” value [5, 8] was 3 and 2 and 6 and 1.
